Test results taken from patent US20220202885A1, “ONCOLYTIC VIRUS WITH IMPROVED SAFETY AND […]” (BIONOXX INC., priority 2019, published 2022).

How the values were obtained:
[1] = test system: CD8+ T cells secreting IFN-γ; type: in vivo, mouse; conditions: CT-26 allograft Balb/c mice; same doses and regimens as tumor volume test; co-culture with CT-26 cells
[2] = test system: human breast cancer cell line (MDA-MB-231) xenograft; assay: Tumor volume in human breast cancer cell line-transplanted mice (Example 11); type: in vivo, mouse; conditions: MDA-MB-231 xenograft Balb/c nu/nu mice
[3] = test system: mouse colorectal cancer cell line (CT-26) allograft; assay: Tumor volume in mouse colorectal cancer cell line-transplanted mice (Example 13.2); type: in vivo; conditions: CT-26 allograft Balb/c mice; WOTS-418 1×10^8 pfu i.p. D0, D3 and 1×10^7 pfu i.t. D14, D21; hydroxyurea 30 mg/kg i.p. once a day

## hydroxyurea
[1]
  CD8+ T cells secreting IFN-γ among spleen CD8+ T cells, compared with control mice (ELISPOT): abundant
[2]; HU 30 mg/kg i.p. twice a day, day 31
  tumor volume on day 31 relative to the initial tumor volume: ≥ 5 fold
[2]; WOTS-418 1×10^7 pfu (D0 i.p., D10 i.t.), hydroxyurea 30 mg/kg i.p. twice a day
  tumor growth (tumor volume measured for 31 days): tumor growth was not inhibited
[3]
  tumor volume on day 25 compared with the control group: suppressed tumor volume
